Values of other authors as cited in patent US4350696A, “Imidazole derivatives, process for their preparation and pharmaceutical compositions thereof” (Pfizer Inc., priority 1980, dated 1982).

What was measured:
[1] = test system: platelet clumping and embolisation in the lungs; conditions: rabbit, intravenous injection of arachidonic acid
[2] = test system: human blood platelet aggregation; conditions: in vitro, a variety of aggregating agents
aggregation of platelets = conditions: rats in vivo, abdominal aorta loop

SMILES | protection from lethal effect of intravenous arachidonic acid [1] | inhibitory activity against platelet aggregation [2] | prevention of platelet aggregation in extra corporeal loop (aggregation of platelets)
CC(=O)Oc1ccccc1C(=O)O [aspirin] | protect the rabbit from the lethal effect of the injection | show inhibitory activity | 
O=C1C(CC[S+]([O-])c2ccccc2)C(=O)N(c2ccccc2)N1c1ccccc1 (stereo not shown) [sulphinpyrazone] |  | show inhibitory activity | prevent the aggregation of platelets
